Reference: US11091429B2, “Organic compounds” (Givaudan SA, priority 2012, dated 2021)
Entries after “also recorded” stand apart in the source; their conditions may differ.

Legend:
[1] = Tasting in mango still beverage, 4% clear mango juice; details: 1 ppm; 4% clear mango juice (30% reduced juice)
Protocol: Mango Flavoured Still Beverage Containing Different Levels of Juice,
In a Mango flavoured still beverage, sweetened with 8% sucrose and containing 0.1% citric acid and 1%, 4% and 6% clear mango juice flavoured with a proprietary Mango flavour @ 0.05%, C18:2-gaba and C18:2-Pro were added, as such (separate) and in combination.
All samples were evaluated by expert tasters. Tasters were asked to describe the samples focusing on authentic taste, juicy mouthfeel, enhancement, richness, juiciness, long lastingness, salivation, sweetness.
In a Mango flavoured still beverage, sweetened with 8% sucrose & containing 0.1% citric acid and 4% clear mango juice flavoured with Mango flavour @ 0.05%, C18:2-gaba and C18:2-Pro were added, as such (separate) and in combination.
Base is water, 8% sucrose, 0.1% citric acid, 4% clear mango juice (30% reduced juice), flavoured with Mango flavor, dosed at 0.05%

Tasting in soy milk = details: 2 ppm, soy milk (1.8% fat), 5% sucrose, milk flavour 0.1%
Protocol: In a soy milk (1.8% fat) sweetened with 5% sucrose by weight, flavoured with a proprietary milk flavour ata dosage of 0.1%, C18:2-gaba was added at 2 ppm
(§1) Samples were evaluated by expert tasters. Tasters were asked to describe the samples focusing on authentic taste, mouthfeel, fullness, salivation, sweetness, juiciness, richness, long lastingness and fattiness.

[2] = Tasting on fried potato snack product; details: 35% fat, cheese seasoning
Protocol: (§2) The following formulations were prepared and tasted by trained panelists.
A snack product consisting of a fried potato base, containing 35% fat and flavored with cheese seasoning containing salt, MSG, dairy, organic acids, sugars, and a flavour formulation. The following compounds were added to the snack product at the indicated levels and the tasting results are reported: […]

[3] = Tasting of chicken filet fried in oil
Protocol: as §2
Differentiator high temperature 100-250 degrees Celsius in a frying in oil process
C18:2 gaba @ 2.0 PPM in 135 gram frying oil (blue band 82% Fat) 450 gram chicken filet 2 minutes high fire and 5 minutes medium fire.

Tasting in cheese sauce = details: 0.5 PPM in cheese sauce 5% fat 1.6% salt
Protocol: as §2
Cheese sauce: 5% fat 1.6% salt
(§3) Samples were prepared and evaluated by expert tasters. Tasters were asked to describe the samples focusing on authentic taste, mouthfeel, fullness, salivation, salty-ness, umami, sweetness, juiciness, richness, long lastingness and fattiness.
Cheese Sauce: 5% Fat 1.6% Salt

[4] = Tasting in low fat mayonnaise
Protocol: as §2
Low fat Mayonnaise (27% Fat, 9% carbohydrates (of which 5% sugar), 1.4% salt)
Samples were prepared and evaluated by expert tasters. Tasters were asked to describe the samples focusing on authentic taste, mouthfeel, fullness, salty-ness, salivation, umami, sweetness, juiciness, richness, long lastingness and fattiness.
Calve 60% Reduced Fat Mayonnaise
Base is Calve Mayonnaise 60% reduced fat (market Product)
as §3
Low fat Mayonnaise (27% Fat)

[5] = Tasting in UHT sweetened banana flavoured milk; details: banana flavour 0.04%
Protocol: UHT Sweetened Banana Flavoured Milk, With Different Fat Levels
In a UHT milk with 0% and 3% fat sweetened with 4% sucrose by weight, flavoured with proprietary banana flavour dosed at 0.04%. C18:2 gaba was added at 0.25 ppm, 0.5 ppm and 1 ppm.
as §1

[6] = Tasting in UHT milk, cream flavoured; details: 2 ppm, cream flavour 0.03%
Protocol: The following tests were carried out on dairy products processed by fermentation, pasteurization or UHT. The products contain fat, protein and calcium.
UHT Milk Cream Flavoured, Non Sweetened and Different Fat Levels
In a UHT milk containing 0%, 1.5% and 3% fat, flavoured with a proprietary cream flavour closed at 0.03% C18:2 gaba was added at 2 ppm.
Samples were evaluated by expert tasters.
Tasters were asked to describe the samples focusing on authentic taste, mouthfeel, fullness, salivation, sweetness, juiciness, richness, long lastingness and fattiness. The results are presented below:—

[7] = Tasting in strawberry flavoured sugar sweetened yoghurt; details: 2 ppm, 1.5% fat yoghurt, 8% sucrose, strawberry flavour 0.015%

CCCCC/C=C\C/C=C\CCCCCCCC(=O)NCCCC(=O)O [C18:2-gaba]
tasting result [1]: fatty skin-like, very juicy, authentic mango, long lasting mango taste, more mouthfeel than the full juice product
tasting result (Tasting in soy milk): clean, creamy, good masking of the soy bean taste, creamy and milky
tasting result ([2]; 0.5 ppm on fried potato snack): increased dairy, cheesy
tasting result ([2]; 1 ppm on fried potato snack): Fatty full, cheesy, cheese crust, long lasting
taste of the frying oil ([3]; 2.0 PPM in 135 gram frying oil (blue band 82% Fat)): more savoury golden brown notes
taste of the chicken ([3]; 2.0 PPM in 135 gram frying oil, 450 gram chicken filet, 2 minutes high fire and 5 minutes medium fire): more juicy, succulent, lingering more white meat
tasting result (Tasting in cheese sauce): Full, Salty, cheese bite expanding
tasting result ([4]; 0.5 ppm in Calve Mayonnaise 60% reduced fat): full, rich, creamy, more egg yolk taste
tasting result ([4]; 0.5 ppm in low fat mayonnaise (27% fat)): creamy, thick mouthfeel with a full fat impression
tasting result ([5]; 0.25 ppm, UHT milk 0% fat): fuller banana, more authentic, more sweet
tasting result ([5]; 0.25 ppm, UHT milk 3% fat): more authentic, less estery and more round
tasting result ([5]; 0.5 ppm, UHT milk 0% fat): fuller banana, authentic, creamy and sweet, more mouthfeel
tasting result ([5]; 0.5 ppm, UHT milk 3% fat): creamy banana
tasting result ([5]; 1 ppm, UHT milk 0% fat): creamy, creamy banana, sweet aftertaste, more mouthfeel and very longlasting
tasting result ([5]; 1 ppm, UHT milk 3% fat): creamy long lasting and more authentic and more impact
tasting result ([6]; UHT milk 0% fat): Very creamy, milky, long lasting
tasting result ([6]; UHT milk 1.5% fat): very creamy, milky, long lasting, salivating
tasting result ([6]; UHT milk 3.0% fat): very creamy, milky, long lasting, taste like whipped cream
tasting result [7]: very creamy and fresh strawberry; also recorded: creamy, fruity authentic strawberry, stronger strawberry, ripe, long lasting, juicy
